The record followed here is US7741354B2, “Inhibitors of glutaminyl cyclase” (Probiodrug AG, priority 2006, dated 2010).

Molecules are shown by their SMILES.

Chain of hQC (Q16769 29-361): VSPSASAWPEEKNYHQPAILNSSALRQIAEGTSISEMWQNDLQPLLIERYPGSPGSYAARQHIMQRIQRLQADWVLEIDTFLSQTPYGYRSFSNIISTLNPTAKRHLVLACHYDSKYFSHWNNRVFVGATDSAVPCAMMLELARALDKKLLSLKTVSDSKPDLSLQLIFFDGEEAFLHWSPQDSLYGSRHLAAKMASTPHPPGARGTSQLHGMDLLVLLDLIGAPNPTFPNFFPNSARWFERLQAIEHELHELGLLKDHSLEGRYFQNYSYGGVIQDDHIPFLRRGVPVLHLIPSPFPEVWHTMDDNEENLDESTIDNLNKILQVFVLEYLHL

One assay deals with hQC (Homo sapiens, UniProt Q16769). The assay is described as follows: Fluorometric (fluorescent) assay of hQC inhibition, IC50. The class given is biochemical. The following applies: hQC inhibition; read-out: IC50. The procedure, abridged:
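QC activity followed at 30° C via pyroglutamyl aminopeptidase-coupled release of fluorophore, using either H-Gln-βNA (0.2 mM; ex/em 320/410 nm; 0.2 M Tris/HCl pH 8.0, 20 mM EDTA) or H-Gln-AMC (ex/em 380/460 nm; 0.05 M Tris/HCl pH 8.0, 5 mM EDTA).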
A word on the IC50: it is the concentration at which inhibition is half-maximal. For `O=C(Cn1nnnc1C(Nc1ccc2[nH]cnc2c1)c1ccc(Br)cc1)N1CCc2ccccc2C1` (centres unmarked) [compound 199, 2-{5-[(1H-Benzoimidazol-5-ylamino)-(4-bromo-phenyl)-methyl]-tetrazol-1-yl}-1-(3,4-dihydro-1H-isoquinolin-2-yl)-ethanone], the half-maximal inhibitory concentration (IC50) stood at 2.2 µM.

Turning to `Brc1cc(Br)cc(C(Nc2ccc3[nH]cnc3c2)c2nnnn2-c2ccc3c(c2)OCCO3)c1` (centres unmarked) [compound 179, (1H-Benzoimidazol-5-yl)-{(3,5-dibromo-phenyl)-[1-(2,3-dihydro-benzo[1,4]dioxin-6-yl)-1H-tetrazol-5-yl]-methyl}-amine], the IC50 is 4 µM. As to `COc1ccc(C(Nc2ccc3[nH]cnc3c2)c2nnnn2-c2ccccc2OCc2ccccc2)cc1` (centres unmarked) [compound 210, (1H-Benzoimidazol-5-yl)-[[1-(2-benzyloxy-phenyl)-1H-tetrazol-5-yl]-(4-methoxy-phenyl)-methyl]-amine], the concentration for half-maximal inhibition (IC50) was 2.2 µM. With `CC1(C)OCC(Cn2nnnc2C(Nc2ccc3[nH]cnc3c2)c2ccc(Cl)c([N+](=O)[O-])c2)O1` (centres unmarked) [compound 171, (1H-Benzoimidazol-5-yl)-{(4-chloro-3-nitro-phenyl)-[1-(2,2-dimethyl-[1,3]dioxolan-4-ylmethyl)-1H-tetrazol-5-yl]-methyl}-amine], the 50% inhibitory concentration (IC50) is 8.5 µM. The same measure, in the same setting: with `CCOC(=O)C1CCCCC1n1nnnc1C(Nc1ccc2[nH]cnc2c1)c1cccc(OC)c1` (centres unmarked) [compound 192] the figure was 8.5 µM; with `Clc1ccccc1Cn1nnnc1C(Nc1ccc2[nH]cnc2c1)c1ccc2nsnc2c1` (centres unmarked) [compound 205], 2.2 µM; with `O=[N+]([O-])c1cc(C(Nc2ccc3[nH]cnc3c2)c2nnnn2Cc2ccc(Cl)cc2)ccc1Cl` (centres unmarked) [compound 197, (1H-Benzoimidazol-5-yl)-[[1-(4-chloro-benzyl)-1H-tetrazol-5-yl]-(4-chloro-3-nitro-phenyl)-methyl]-amine], 2.2 µM. Take `CCOC(=O)C1CCCCC1n1nnnc1C(Nc1ccc2[nH]cnc2c1)c1ccc(OC)cc1` (centres unmarked) [compound 184]: the 50% inhibitory concentration (IC50) stood at 5.8 µM. Consider `COC(=O)c1cccc(C(Nc2ccc3[nH]cnc3c2)c2nnnn2-c2ccc(C(C)(C)C)cc2)c1` (centres unmarked) [compound 128, 3-{(1H-Benzoimidazol-5-ylamino)-[1-(4-tert-butyl-phenyl)-1H-tetrazol-5-yl]-methyl}-benzoic acid methyl ester], for which the IC50 came out at 6.7 µM. Turning to `Clc1ccccc1Cn1nnnc1C(Nc1ccc2[nH]cnc2c1)c1cccnc1` (centres unmarked) [compound 135, (1H-Benzoimidazol-5-yl)-{[1-(2-chloro-benzyl)-1H-tetrazol-5-yl]-pyridin-3-yl-methyl}-amine], the IC50 is 8.5 µM. As for `COc1ccc(C(Nc2ccc3[nH]cnc3c2)c2nnnn2Cc2ccc(Cl)cc2)cc1F` (centres unmarked) [compound 125, (1H-Benzoimidazol-5-yl)-[[1-(4-chloro-benzyl)-1H-tetrazol-5-yl]-(3-fluoro-4-methoxy-phenyl)-methyl]-amine], the IC50 worked out at 3.1 µM. Take `COC(=O)c1cccc(C(Nc2ccc3[nH]cnc3c2)c2nnnn2CC2CCCO2)c1` (centres unmarked) [compound 154, 3-{(1H-Benzoimidazol-5-ylamino)-[1-(tetrahydro-furan-2-ylmethyl)-1H-tetrazol-5-yl]-methyl}-benzoic acid methyl ester]: the IC50 is 5.8 µM. For the molecule `Brc1cc(Br)cc(C(Nc2ccc3[nH]cnc3c2)c2nnnn2Cc2ccccc2)c1` (centres unmarked) [compound 190, (1H-Benzoimidazol-5-yl)-[(1-benzyl-1H-tetrazol-5-yl)-(3,5-dibromo-phenyl)-methyl]-amine], the IC50 is 1.3 µM. On the same count and under the same terms, with `CC(Cc1ccc2c(c1)OCO2)C(Nc1ccc2[nH]cnc2c1)c1nnnn1CC(=O)OC(C)(C)C` (centres unmarked) [compound 149, {5-[3-Benzo[1,3]dioxol-5-yl-1-(1H-benzoimidazol-5-ylamino)-2-methyl-propyl]-tetrazol-1-yl}-acetic acid tert-butyl ester] the figure was 4.9 µM; with `CCOC(=O)C1CCCCC1n1nnnc1C(CC(C)c1ccc(C)o1)Nc1ccc2[nH]cnc2c1` (centres unmarked) [compound 202], 6.7 µM. For the molecule `O=[N+]([O-])c1ccc(-n2nnnc2C(Nc2ccc3[nH]cnc3c2)c2csc3ccccc23)cc1` (centres unmarked) [compound 206], the 50% inhibitory concentration (IC50) turned out to be 8.5 µM. In the case of `Oc1cccc(C(Nc2ccc3[nH]cnc3c2)c2nnnn2CC2CCCO2)c1` (centres unmarked) [compound 152], the IC50 was found to be 9.4 µM. For the molecule `CCc1ccc(C(Nc2ccc3[nH]cnc3c2)c2nnnn2CC2CCCO2)s1` (centres unmarked) [compound 129, (1H-Benzoimidazol-5-yl)-{(5-ethyl-thiophen-2-yl)-[1-(tetrahydro-furan-2-ylmethyl)-1H-tetrazol-5-yl]-methyl}-amine], the IC50 was 8.5 µM. Still for that read-out and setting: with `CC1(C)OCC(Cn2nnnc2C(Nc2ccc3[nH]cnc3c2)c2ccc3c(c2)OCO3)O1` (centres unmarked) [compound 138, {Benzo[1,3]dioxol-5-yl-[1-(2,2-dimethyl-[1,3]dioxolan-4-ylmethyl)-1H-tetrazol-5-yl]-methyl}-(1H-benzoimidazol-5-yl)-amine] the figure was 9.4 µM.

Turning to `COc1ccc(C(Nc2ccc3[nH]cnc3c2)c2nnnn2CC2CCCO2)cc1F` (centres unmarked) [compound 163, (1H-Benzoimidazol-5-yl)-{(3-fluoro-4-methoxy-phenyl)-[1-(tetrahydro-furan-2-ylmethyl)-1H-tetrazol-5-yl]-methyl}-amine], the IC50 is 8.5 µM.

Turning to `CCc1ccc(C(Nc2ccc3[nH]cnc3c2)c2nnnn2Cc2ccccc2)s1` (centres unmarked) [compound 133, (1H-Benzoimidazol-5-yl)-[(1-benzyl-1H-tetrazol-5-yl)-(5-ethyl-thiophen-2-yl)-methyl]-amine], the half-maximal inhibitory concentration (IC50) was determined as 3.1 µM. Same read-out and setting: with `CCCOc1cccc(C(Nc2ccc3[nH]cnc3c2)c2nnnn2CC2CCCO2)c1` (centres unmarked) [compound 141, (1H-Benzoimidazol-5-yl)-{(3-propoxy-phenyl)-[1-(tetrahydro-furan-2-ylmethyl)-1H-tetrazol-5-yl]-methyl}-amine] the figure was 4 µM; with `COc1ccc(C(Nc2ccc3[nH]cnc3c2)c2nnnn2CC(=O)N2CCc3ccccc3C2)cc1` (centres unmarked) [compound 209, 2-{5-[(1H-Benzoimidazol-5-ylamino)-(4-methoxy-phenyl)-methyl]-tetrazol-1-yl}-1-(3,4-dihydro-1H-isoquinolin-2-yl)-ethanone], 4 µM.

Still in this assay, the particulars now being: read-out: IC50.
As for `c1ccc(-c2ccc(C(Nc3ccc4[nH]cnc4c3)c3nnnn3CC3CCCO3)cc2)nc1` (centres unmarked) [compound 76, (1H-Benzoimidazol-5-yl)-{(4-pyridin-2-yl-phenyl)-[1-(tetrahydro-furan-2-ylmethyl)-1H-tetrazol-5-yl]-methyl}-amine], the IC50 was 3.1 µM. Take `COC(=O)Cn1nnnc1C(NCCCn1ccnc1)c1cc(C)ccc1O` (centres unmarked) [compound 51, {5-[(2-Hydroxy-5-methyl-phenyl)-(3-imidazol-1-yl-propylamino)-methyl]-tetrazol-1-yl}-acetic methyl ester]: the concentration for half-maximal inhibition (IC50) was found to be 2.2 µM. In the case of `C/C=C/C=C/C(Nc1ccc2[nH]cnc2c1)c1nnnn1CC1COC(C)(C)O1` (centres unmarked) [compound 92, (1H-Benzoimidazol-5-yl)-{(2E,4E)-1-[1-(2,2-dimethyl-[1,3]dioxolan-4-ylmethyl)-1H-tetrazol-5-yl]-hexa-2,4-dienyl}-amine], the 50% inhibitory concentration (IC50) was 4.9 µM. Still for that read-out and setting: the value for `CCCCn1nnnc1C(NCCCn1ccnc1)c1cc(C)c(C)cc1C` (centres unmarked) [compound 24, [(1-Butyl-1H-tetrazol-5-yl)-(2,4,5-trimethyl-phenyl)-methy]-(3-imidazol-1-yl-propyl)-amine] was 4.9 µM. As for `CCOC(=O)C1CCCCC1n1nnnc1C(Nc1ccc2[nH]cnc2c1)c1ccc(Cl)cc1` (centres unmarked) [compound 94], the half-inhibitory concentration (IC50) turned out to be 9.4 µM. Take `CC1=CCCC[C@@H]1C(NCCCn1ccnc1)c1nnnn1C1CCCC1` (stereo partly drawn) [compound 27, [(1-Cyclopentyl-1H-tetrazol-5-yl)-((S)-2-methyl-cyclohex-2-enyl)-methyl]-(3-imidazol-1-yl-propyl)-amine]: the IC50 worked out at 6.7 µM. In the case of `Oc1cccc2ccc(C(NCCCn3ccnc3)c3nnnn3C3CCCC3)nc12` (centres unmarked) [compound 25, 2-[(1-Cyclopentyl-1H-tetrazol-5-yl)-(3-imidazol-1-yl-propylamino)-methyl]-quinolin-8-ol], the half-maximal inhibitory concentration (IC50) came out at 2.2 µM. `c1cn(CCCNC(c2ccc3[nH]ccc3c2)c2nnnn2C2CCCC2)cn1` (centres unmarked) [compound 26]: the IC50 was 3.1 µM. As to `CCCCn1nnnc1C(NCCCn1ccnc1)c1ccc2[nH]ccc2c1` (centres unmarked) [compound 21, [(1-Butyl-1H-tetrazol-5-yl)-(1H-indol-5-yl)-methyl]-(3-imidazol-1-yl-propyl)-amine], the 50% inhibitory concentration (IC50) is 6.7 µM. Consider `Clc1ccccc1Cn1nnnc1C(Nc1ccc2[nH]cnc2c1)c1cc2ccccc2o1` (centres unmarked) [compound 90, {Benzofuran-2-yl-[1-(2-chloro-benzyl)-1H-tetrazol-5-yl]-methyl}-(1H-benzoimidazol-5-yl)-amine], for which the half-maximal inhibitory concentration (IC50) turned out to be 22.2 µM.

`COc1ccc(C(Nc2ccc3[nH]cnc3c2)c2nnnn2CC2CCCO2)cc1` (centres unmarked) [compound 88, (1H-Benzoimidazol-5-yl)-{(4-methoxy-phenyl)-[1-(tetrahydro-furan-2-ylmethyl)-1H-tetrazol-5-yl]-methyl}-amine]: the concentration for half-maximal inhibition (IC50) turned out to be 4.9 µM. Take `C1=CO[C@H](C(NCCCn2ccnc2)c2nnnn2C2CC2)CC1` (stereo partly drawn) [compound 71, [(S)-(1-Cyclopropyl-1H-tetrazol-5-yl)-3,4-dihydro-2H-pyran-2-yl-methyl]-(3-imidazol-1-yl-propyl)-amine]: the IC50 was determined as 9.4 µM. As for `C1=COC(C(Nc2ccc3[nH]cnc3c2)c2nnnn2C2CCCCC2)CC1` (centres unmarked) [compound 114], the IC50 stood at 6.7 µM.

`COC(=O)Cn1nnnc1C(NCCCn1ccnc1)c1ccc(OC)c(O)c1` (centres unmarked) [compound 58, {5-[(3-Hydroxy-4-methoxy-phenyl)-(3-imidazol-1-yl-propylamino)-methyl]-tetrazol-1-yl}-acetic methyl ester]: the IC50 stood at 4 µM. As to `CN(C)CCn1nnnc1C(NCCCn1ccnc1)c1ccc2cccc(O)c2n1` (centres unmarked) [compound 37, 2-[[1-(2-Dimethylamino-ethyl)-1H-tetrazol-5-yl]-(3-imidazol-1-yl-propylamino)-methyl]-quinolin-8-ol], the IC50 worked out at 4.9 µM.
